According to patent US20150315241A1, “Antibiotic Peptides” (priority 2007, published 2015):
≈ marks a conversion by molar mass, not a printed value. Read-outs that look alike come from different tables or passages of the source. Where a SMILES comes first, the peptide text is derived from it. Bridges are numbered along the chain shown (N, C = ends). Roman numbers before positions name the chains, in order. Where no end group is shown, it is not given here. [ ]: non-standard residue; d: D form. NMeL = CN[C@@H](CC(C)C)C(=O)O; Orn = NCCC[C@H](N)C(=O)O; Dab = NCC[C@H](N)C(=O)O

Columns and labels:
E. coli 1103 = format: cell-based, Escherichia coli
How it was run: (§1)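 Bacteria grown overnight in NB at 37° C. were adjusted to 5×10^6 CFU/mL in 1% TSB and mixed 1:1 with a two-fold peptide series (final 125 μg/mL–60 ng/mL). After 20 hrs at 37° C., A595 was read; triplicates.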

E. coli 10233 = format: cell-based, Escherichia coli
How it was run: as §1

M. luteus ATCC 10240 = format: cell-based, Micrococcus luteus
How it was run: as §1

[1] = system: S. enterica subsp. Enterica serovar. typhi G10215 ATCC 700408; format: cell-based, Salmonella enterica; details: ATCC 700408, 20 h
How it was run: (§2)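 Read-out: A595 after 20 hrs at 37° C. Bacteria from overnight NB culture, 5×10^6 CFU/mL in 1% TSB, mixed with twofold peptide dilutions (final 125 μg/mL–60 ng/mL). Triplicate wells; water negative control.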

E. coli D31 = format: cell-based, Escherichia coli; details: D31, 20 h
How it was run: as §2

K. pneumonia 681 = format: cell-based, Klebsiella pneumoniae
How it was run: as §1

in vitro = in vitro ADME, mouse
Method: Serum stability studies were carried out in duplicate as described by Hoffmann et al.. Briefly, 28 μL of an aqueous peptide or peptidomimetics solution (0.5 mg/mL) was added to 0.2 mL freshly pooled 25% mouse serum (Sigma-Aldrich GmbH, Taufkirchen, Germany) in water. The mixtures were incubated at 37° C. under gentle stirring. The proteins were precipitated with 40 μL of 15% aqueous TCA after incubation times of 0, 0.5, 1, 2, 4 and 6 h at 0° C. for 20 min before centrifuged (13500×G) at 4° C. for 5 min. The supernatants of all samples (240 μL) were neutralized with 1 mol/L aqueous NaOH and immediately stored at −20° C. The supernatants were analyzed by RP-HPLC using a linear acetonitrile gradient as described above with 0.1% TFA as ion pair reagent. Collected fractions of the main peaks were further analyzed by tandem mass spectrometry (MALDI-TOF/TOF-MS, 4700 Proteomics Analyzer, Applied Biosystems GmbH, Weiterstadt, Germany) in positive ion reflector mode using α-cyanohydroxycinnamic acid (50% CH3CN in 0.1% aqueous TFA) as matrix to identify the degradation products of the peptides and peptidomimetics, i.e., metabolites, at the different time points. Serum control samples consisted of 200 μL of pooled 25% mouse serum in water, which were also precipitated with 40 μL 15% aqueous TCA, as described before. Peptide reference samples consisted of 28 μL of the peptide stock solution diluted in 0.2 mL water and 40 μL of 15% aqueous trichloroacetic acid (TCA).

B. subtilis 347 = format: cell-based, Bactillus subtillis
How it was run: as §1

E. coli BL 21 AI = experiment: Growth inhibition assay (MIC); format: cell-based, Escherichia coli; details: 1% TSB, 37° C., 20 hrs
How it was run: as §1

[2] = system: K. Pneumonia K6, ATCC 700603; experiment: Growth inhibition assay (MIC); format: cell-based, Klebsiella pneumoniae; details: multidrug resistant strain; 1% TSB, 37° C., 20 hrs
How it was run: as §2

K. Pneumonia 123132 = experiment: Growth inhibition assay (MIC); format: cell-based, Klebsiella pneumoniae
How it was run: as §2

E. coli 45849 = experiment: Growth inhibition assay (MIC); format: cell-based, Escherichia coli
How it was run: as §2

[3] = system: R. radiobatter ATCC 15955; experiment: Growth inhibition assay (MIC); format: cell-based, Rhizobium radiobacter
How it was run: as §2

S. typhi S5 = format: cell-based, Salmonella typhi; details: S5, 20 h
How it was run: as §2

E. coli DC 2 = experiment: Growth inhibition assay (MIC); format: cell-based, Escherichia coli; details: 1% TSB, 37° C., 20 hrs
How it was run: as §1

[4] = 25% aqueous mouse serum, 37° C., read-out: Half-life time
[5] = multidrug resistant strain, 1% TSB, 37° C., 20 hrs

Compound | MIC E. coli 1103 (E. coli 1103; 1% TSB, 37° C., 20 hrs) [µg/mL] | MIC E. coli 10233 (E. coli 10233; 1% TSB, 37° C., 20 hrs) [µg/mL] | MIC M. luteus ATCC 10240 (M. luteus ATCC 10240; 1% TSB, 37° C., 20 hrs) [µg/mL] | MIC S. enterica subsp. Enterica serovar. typhi G10215 ATCC 700408 [1] [µg/mL] | MIC E. coli D31 (E. coli D31) [µg/mL] | MIC K. pneumonia 681 (K. pneumonia 681; 1% TSB, 37° C., 20 hrs) [µg/mL] | half-life at 0.061 mg/mL (in vitro; [4]) [min] | MIC B. subtilis 347 (B. subtilis 347; 1% TSB, 37° C., 20 hrs) [µg/mL] | MIC E. coli BL 21 AI (E. coli BL 21 AI) [µg/mL] | MIC K. Pneumonia K6, ATCC 700603 [2] [µg/mL] | MIC K. Pneumonia 123132 (K. Pneumonia 123132; 20 h) [µg/mL] | MIC E. coli 45849 (E. coli 45849; 45849, 20 h) [µg/mL] | MIC S. typhi S5 (S. typhi S5) [µg/mL] | MIC E. coli 1103 (E. coli 1103; 1103, 20 h) [µg/mL] | MIC E. coli 10233 (E. coli 10233; 10233, 20 h) [µg/mL] | MIC M. luteus ATCC 10240 (M. luteus ATCC 10240; ATCC 10240, 20 h) [µg/mL] | MIC K. pneumonia 681 (K. pneumonia 681; 20 h) [µg/mL] | MIC B. subtilis 347 (B. subtilis 347; 347, 20 h) [µg/mL] | MIC K. Pneumonia 123132 (K. Pneumonia 123132; [5]) [µg/mL] | MIC E. coli 45849 (E. coli 45849; [5]) [µg/mL] | also measured
CC[C@H](C)[C@H](NC(=O)[C@H](Cc1ccc(O)cc1)NC(=O)[C@@H](NC(=O)[C@@H]1CCCN1C(=O)[C@H](CCCNC(=N)N)NC(=O)[C@H](CC(N)=O)NC(=O)[C@H](CC(N)=O)NC(=O)[C@@H](N)CCCN)C(C)C)C(=O)N1CCC[C@H]1C(=O)N[C@@H](CCCN)C(=O)N1CCC[C@H]1C(=O)N[C@@H](CCCNC(=N)N)C(=O)N1CCC[C@H]1C(=O)N1CCC[C@H]1C(=O)N[C@@H](Cc1c[nH]cn1)C(=O)N1CCC[C@H]1C(=O)N[C@@H](CCCNC(=N)N)C(=O)N[C@@H](CC(C)C)C(N)=O [compound 12] (H-[Orn]NNRPVYIP[Orn]PRPPHPRL-NH2) | 3.91 (≈ 1.82 µM) | 0.98 to 1.95 | 1.95 (≈ 0.907 µM) | <0.25 | 4 (≈ 1.86 µM) | 7.81 (≈ 3.63 µM) | 15 | 62.5 (≈ 29.1 µM) | 0.98 (≈ 0.456 µM) | 4 (≈ 1.86 µM) | 4 (≈ 1.86 µM) | 1 (≈ 0.465 µM) | <0.5 |  |  |  |  |  |  |  | MIC R. radiobatter ATCC 15955 ([3]; ATCC 15955, 20 h): 0.65 µg/mL (≈ 0.302 µM)
CC[C@H](C)[C@H](NC(=O)[C@H](Cc1ccc(O)cc1)NC(=O)[C@@H](NC(=O)[C@@H]1CCCN1C(=O)[C@H](CCCNC(=N)N)NC(=O)[C@H](CC(N)=O)NC(=O)[C@H](CC(N)=O)NC(=O)[C@H](CCCN)NC(C)=O)C(C)C)C(=O)N1CCC[C@H]1C(=O)N[C@@H](CCCN)C(=O)N1CCC[C@H]1C(=O)N[C@@H](CCCNC(=N)N)C(=O)N1CCC[C@H]1C(=O)N1CCC[C@H]1C(=O)N[C@@H](Cc1c[nH]cn1)C(=O)N1CCC[C@H]1C(=O)N[C@@H](CCCNC(=N)N)C(=O)N[C@@H](CC(C)C)C(N)=O [compound 13] (Ac-[Orn]NNRPVYIP[Orn]PRPPHPRL-NH2) | 3.81 (≈ 1.74 µM) | 1.95 (≈ 0.889 µM) | 1.95 (≈ 0.889 µM) | <0.25 | 4 (≈ 1.82 µM) | 3.91 (≈ 1.78 µM) | 15 | 125 (≈ 57 µM) | 1.95 (≈ 0.889 µM) | 8 (≈ 3.65 µM) | 8 (≈ 3.65 µM) | 2 (≈ 0.912 µM) | <0.5 |  |  |  |  |  |  |  | degradation pathway in serum (N-/C-terminal) (in vitro; 25% mouse serum, metabolites by MALDI-MS): not degraded N-terminally, but only from the C-terminal end; MIC R. radiobatter ATCC 15955 ([3]; ATCC 15955, 20 h): <0.16 µg/mL
CC[C@H](C)[C@H](NC(=O)[C@@H]1CCCN1C(=O)[C@H](CCCNC(=N)N)NC(=O)[C@@H]1CCCN1C(=O)[C@H](Cc1c[nH]cn1)NC(=O)[C@@H]1CCCN1C(=O)[C@@H]1CCCN1C(=O)[C@H](CCCNC(=N)N)NC(=O)[C@@H]1CCCN1C(=O)[C@H](CCCNC(=N)N)NC(=O)[C@@H]1CCCN1C(=O)[C@@H](NC(=O)[C@H](Cc1ccc(O)cc1)NC(=O)[C@@H](NC(=O)[C@@H]1CCCN1C(=O)[C@H](CCCNC(=N)N)NC(=O)[C@H](CC(N)=O)NC(=O)[C@H](CC(N)=O)NC(=O)[C@@H](N)CCCN)C(C)C)[C@@H](C)CC)C(=O)N[C@@H](CCCNC(=N)N)C(=O)N[C@H](C(=O)O)C(C)C [compound 23] (H-[Orn]NNRPVYIPRPRPPHPRPIRV-OH) |  |  |  | 8 (≈ 3.14 µM) | 64 (≈ 25.1 µM) |  | 240 |  | 1.95 to 3.91 | 32 (≈ 12.6 µM) |  |  | 8 (≈ 3.14 µM) | 7.81 (≈ 3.07 µM) | 3.91 (≈ 1.54 µM) | 0.12 (≈ 0.0471 µM) | 62.5 (≈ 24.5 µM) | 125 (≈ 49.1 µM) | 16 (≈ 6.28 µM) | 8 (≈ 3.14 µM) | MIC R. radiobatter ATCC 15955 [3, 5]: 0.65 µg/mL (≈ 0.255 µM)
CC[C@H](C)[C@H](NC(=O)[C@H](Cc1ccc(O)cc1)NC(=O)[C@@H](NC(=O)[C@@H]1CCCN1C(=O)[C@H](CCCNC(=N)N)NC(=O)[C@H](CC(N)=O)NC(=O)[C@H](CC(N)=O)NC(=O)[C@H](CCCN)NC(C)=O)C(C)C)C(=O)N1CCC[C@H]1C(=O)N[C@@H](CCC(N)=O)C(=O)N1CCC[C@H]1C(=O)N[C@@H](CCCNC(=N)N)C(=O)N1CCC[C@H]1C(=O)N1CCC[C@H]1C(=O)N[C@@H](Cc1c[nH]cn1)C(=O)N1CCC[C@H]1C(=O)N[C@@H](CCCNC(=N)N)C(=O)N(C)[C@@H](CC(C)C)C(N)=O [compound 32] (Ac-[Orn]NNRPVYIPQPRPPHPR[NMeL]-NH2) |  |  |  | 8 (≈ 3.6 µM) | 64 (≈ 28.8 µM) |  |  |  | 15.63 (≈ 7.04 µM) | >128 |  |  | 32 (≈ 14.4 µM) | 31.4 (≈ 14.1 µM) | 31.25 (≈ 14.1 µM) | 7.81 (≈ 3.52 µM) | >125 | >125 | >64 | 8 (≈ 3.6 µM) | Half-life time (in vitro; 25% aqueous mouse serum, 37° C.): >360 min; half-life at 0.061 mg/mL (in vitro; mouse, 25% aqueous serum, 37° C., read-out: half-life): > 360 min; MIC R. radiobatter ATCC 15955 [3, 5]: 1.3 µg/mL (≈ 0.585 µM)
CC[C@H](C)[C@H](NC(=O)[C@H](Cc1ccc(O)cc1)NC(=O)[C@@H](NC(=O)[C@@H]1CCCN1C(=O)[C@H](CCCNC(=N)N)NC(=O)[C@H](CC(N)=O)NC(=O)[C@H](CC(N)=O)NC(=O)[C@H](CCCN)NC(C)=O)C(C)C)C(=O)N1CCC[C@H]1C(=O)N[C@@H](CCCNC(=N)N)C(=O)N1CCC[C@H]1C(=O)N[C@@H](CCCNC(=N)N)C(=O)N1CCC[C@H]1C(=O)N1CCC[C@H]1C(=O)N[C@@H](Cc1c[nH]cn1)C(=O)N1CCC[C@H]1C(=O)N[C@@H](CCCNC(=N)N)C(=O)N[C@@H](CC(C)C)C(=O)NCC[C@H](NC(=O)[C@H](CC(C)C)NC(=O)[C@H](CCCNC(=N)N)NC(=O)[C@@H]1CCCN1C(=O)[C@H](Cc1c[nH]cn1)NC(=O)[C@@H]1CCCN1C(=O)[C@@H]1CCCN1C(=O)[C@H](CCCNC(=N)N)NC(=O)[C@@H]1CCCN1C(=O)[C@H](CCCNC(=N)N)NC(=O)[C@@H]1CCCN1C(=O)[C@@H](NC(=O)[C@H](Cc1ccc(O)cc1)NC(=O)[C@@H](NC(=O)[C@@H]1CCCN1C(=O)[C@H](CCCNC(=N)N)NC(=O)[C@H](CC(N)=O)NC(=O)[C@H](CC(N)=O)NC(=O)[C@H](CCCN)NC(C)=O)C(C)C)[C@@H](C)CC)C(=O)O [compound 83] (I: Ac-[Orn]NNRPVYIPRPRPPHPRL[Dab]-OH / II: Ac-[Orn]NNRPVYIPRPRPPHPRL; amide I:19-II:C) |  |  |  | 4 (≈ 0.878 µM) | 2 (≈ 0.439 µM) |  |  |  | 1.95 (≈ 0.428 µM) | 8 (≈ 1.76 µM) |  |  | 4 (≈ 0.878 µM) |  | 31.25 (≈ 6.86 µM) | 1.95 (≈ 0.428 µM) | 125 (≈ 27.5 µM) | 15.6 (≈ 3.43 µM) | 8 (≈ 1.76 µM) | 8 (≈ 1.76 µM) | half-life (in vitro; [4]): 15 min
GNNRPVYIPRPRPPHPRI-NH2 [compound 14] |  |  |  | 2 | 64 |  |  |  | 0.49 | 8 |  |  |  | 0.98 |  | 0.98 | 15.62 |  |  |  | MIC E. coli DC 2 (E. coli DC 2): 7.81 µg/mL
